Patent US20260053932A1, “COMPOUNDS AND METHODS FOR THE TARGETED DEGRADATION OF ANDROGEN RECEPTOR AND ASSOCIATED METHODS OF USE” (Arvinas Operations, Inc., priority 2020, published 2026)

System: androgen receptor (AR) in LNCaP and/or VCaP cells
Test: Androgen Receptor ELISA assay (AR degradation)
Type: cell-based
Conditions: degradation of AR ELISA in LNCaP and/or VCaP cells; read-out: DC50 Code*
Outline: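 VCaP cells grown ≥3 days, then treated 5 h with compound in media containing 1 nM R1881 (10× stock). Cells lysed and AR quantified by sandwich ELISA (mouse AR detection Ab, HRP anti-mouse, TMB). DC50 and Dmax derived from AR degradation.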

SMILES	DC50
COCCN(CC1CCN(c2cnc(C(=O)N[C@H]3C(C)(C)[C@H](Oc4ccc(C#N)c(Cl)c4)C3(C)C)cn2)CC1)[C@H]1C[C@H](Oc2ccc3c(c2)C(=O)N(C2CCC(=O)NC2=O)C3=O)C1 (some centres unmarked) [compound 239, N-((1r,3r)-3-(3-chloro-4-cyanophenoxy)-2,2,4,4-tetramethylcyclobutyl)-5-(4-((((1r,3r)-3-((2-(2,6-dioxopiperidin-3-yl)-1,3-dioxoisoindolin-5-yl)oxy)cyclobutyl)(2-methoxyethyl)amino)methyl)piperidin-1-yl)pyrazine-2-carboxamide]	1 to 10 nM
COc1cc(O[C@H]2C[C@H](N(CC(F)F)CC3CCN(c4ccc(C(=O)N[C@H]5C(C)(C)[C@H](Oc6cc(C)c(C#N)c(C)c6)C5(C)C)cc4)CC3)C2)cc2c1C(=O)N(C1CCC(=O)NC1=O)C2=O (some centres unmarked) [compound 242, N-((1r,3r)-3-(4-cyano-3,5-dimethylphenoxy)-2,2,4,4-tetramethylcyclobutyl)-4-(4-(((2,2-difluoroethyl)((1r,3r)-3-((2-(2,6-dioxopiperidin-3-yl)-7-methoxy-1,3-dioxoisoindolin-5-yl)oxy)cyclobutyl)amino)methyl)piperidin-1-yl)benzamide]	1 to 10 nM
COc1cc(O[C@H]2C(C)(C)[C@H](NC(=O)c3ccc(N4CCC(CN5CCOCCCCOc6cc(cc7c6C(=O)N(C6CCC(=O)NC6=O)C7=O)O[C@H]6C[C@H]5C6)CC4)nn3)C2(C)C)ccc1C#N (some centres unmarked) [compound 244]	1 to 10 nM
CC1(C)[C@H](NC(=O)c2ccc(N3CCC(CO[C@H]4C[C@H](Oc5ccc6c(c5)C(=O)N(C5CCC(=O)NC5=O)C6=O)C4)CC3)cc2)C(C)(C)[C@H]1Oc1ccc(C#N)c(Cl)c1 (some centres unmarked) [compound 245, N-((1r,3r)-3-(3-chloro-4-cyanophenoxy)-2,2,4,4-tetramethylcyclobutyl)-4-(4-(((1r,3r)-3-((2-(2,6-dioxopiperidin-3-yl)-1,3-dioxoisoindolin-5-yl)oxy)cyclobutoxy)methyl)piperidin-1-yl)benzamide]	1 to 10 nM
COc1cc(O[C@H]2C[C@H](N(CC(F)F)CC3CCN(c4cnc(C(=O)N[C@H]5C(C)(C)[C@H](Oc6cc(C)c(C#N)c(C)c6)C5(C)C)cn4)CC3)C2)cc2c1C(=O)N(C1CCC(=O)NC1=O)C2=O (some centres unmarked) [compound 246, N-((1r,3r)-3-(4-cyano-3,5-dimethylphenoxy)-2,2,4,4-tetramethylcyclobutyl)-5-(4-(((2,2-difluoroethyl)((1r,3r)-3-((2-(2,6-dioxopiperidin-3-yl)-7-methoxy-1,3-dioxoisoindolin-5-yl)oxy)cyclobutyl)amino)methyl)piperidin-1-yl)pyrazine-2-carboxamide]	10 to 100 nM
